This note sets out measurements from US20040141944A1, “Inhibition of xenoreactive antibodies” (priority 1998, published 2004).

In one assay the test system is xenoreactive antibodies. Kind of assay: TPC treatment with discordant xenotransplant (pig heart) in cynomolgous monkeys. In kind it is in vivo. The procedure:
The TPC molecule 410S was prepared as described above in Example 5. Three monkeys received 250 mg TPC (# 19-97, 18-97, 21-97), and two monkeys received 250 mg control vehicle (#28-97, 23-97) every 3 days for 2 weeks (total 6 doses/animal) via IV infusion. 250 mg/5 mL per vial was supplied as sterile solution to be injected into 50 ML sterile physiological saline in an IV bag and administered IV at a rate of approximately 2-3 mLs/min. Prior to administration and 15-60 minutes after administration was complete, 1-3 mLs of blood was drawn for serum from each monkey at a site distant from the site of administration. On the day of the 6th dose, each monkey underwent a heterotopic heart transplant following drug infusion. A heart from a transgenic pig which expresses human CD59 and human CD55 was placed in the abdominal position as described (Byrne, et al., 1997, Transplantation 63:149-155) and remained in place up to 6 hours before being explanted.
Following the transplant and explant, the monkeys continued infusion of either TPC or control vehicle, as above, once per day for 9 days. Blood was drawn for serum analysis before and after each administration. The monkeys were monitored for at least 15 days after cessation of TPC administration, and blood was drawn 2 times per week for serum analysis. One monkey died 2 days post-transplant.

Assay [1] has as its system circulating anti-Gal ASC (IgM and IgG). Kind of assay: in vivo effects of TPC administration on circulating anti-Gal ASC (ELISPOT). Set-up: species or system cynomologous monkeys. The procedure: To each well of the first 10 columns of a sterile hydrazine modified polystyrene 96-well plate (Corning Costar, Cambridge, Mass.), 100 μL per well of a solution containing 3.2 mg/mL αGal(1,3)Gal β 1-4 GlcNAc, 3.1 mg/mL EDC and 2.4 mg/mL NHS were added in a darkened cold room and the reaction proceeded for four hours. After careful washing with sterile H2O, the plates were completely covered with plastic strips and stored at 4° C. until use. Plates were blocked with sterile 400 ul/well of PBS/1% HSA for 2 hours at 37° C. Peripheral blood mononuclear cells were isolated by Ficoll-Hypaque (specific gravity, 1.077 g/mL; Pharmacia Fine Chemicals, Piscatawy, N.J.) density gradients at 400 g for 30 min. at 22° C. Low density mononuclear cells at the interfaces were harvested, washed twice by centrifugation (400 g for 10 min.) and resuspended in serum-free complete culture medium consisting of RPMI 1640 (GIBCO, Grand Island, N.Y.) supplemented with 1% HSA, 2 mM L-glutamine, and 100 U/mL penicillin/100 ug/mL streptomycin (GIBCO, Grand Island, N.Y.). Manual hemacytometer cell counts and viability determinations were performed using trypan blue exclusion dye. Thereafter, serial dilutions of PBMNCs (starting at 5×10^5 cells) in 100 ul of serum-free complete culture medium were added to each well and incubated for 18-24 hours at 37° C. in 5% CO2. After washing 8 times using PBS/0.1% Tween-20, the plates were incubated with biotinylated isotype specific goat anti-human Abs (biotin goat anti-human IgM Cat#62-7540; biotin goat anti-human IgG (H&L) Cat# 62-7140, Zymed, San Francisco, Calif.)(1:1000) at 37° C. for 4 hours. After washing, streptavidin conjugated alkaline phosphatase (Cat# 43-4322, Zymed, San Francisco, Calif.) (1:1000) was added for 30 min. at 37° C. Finally, after washing an additional 8 times with PBS/0.1% Tween-20, 5-Bromo-4-chloro-3indolyl-phosphate (Cat# B-8503, Sigma, St. Louis, Mo.) dissolved in 1% low-melt sea-plaque agarose (FMC Bioproducts, Cat#50101) was added as gel substrate to each well. Plates were incubated overnight in the dark at room temperature and single Ab-secreting, spot forming cells (ASC) were visualized, analyzed and counted under low magnification using an inverted phase microscope. Data represents total isotype specific anti-gal Ab-secreting cells/10^6 PBMNCs, calculated from serially diluted cell samples.
To investigate the in vivo response of circulating anti-Gal ASC to TPC administration, we measured the number of ASC per 10^6 peripheral blood mononuclear cells isolated from cynomologous monkeys treated with either TPC (410S) or blocked-PEG as control. Blocked PEG is a 4-arm, 10,000 MW PEG-amine that was reacted with acetic anhydride in order to block the amine-groups of the PEG. Briefly, heparinized peripheral blood samples (2-3 mL) from TPC and PEG treated monkeys were obtained prior to experimentation, after 6 dosages of TPC, 7 days following porcine heart transplantation with daily infusions, 7 days post infusion termination, and 18 days post infusion. Mononuclear cells were isolated via Ficoll-Hypaque gradient centrifugation and assayed for anti-Gal IgM and IgG ASC using the ELISPOT assay as described in Example 15. […] In contrast, the number of IgG ASC in the PEG treated animal increased 14.9-fold with no detectable change in the number of IgM ASC. Seven days after the termination of TPC treatment, 14 days post transplantation, circulating IgG and IgM ASC were 27-84% and 1.3-9.8% of baseline values, respectively. In the PEG treated monkey, IgG ASC were 4.4 above baseline and IgM ASC levels reduced 51%.

Where [2] appears, read: day 7 post transplantation (porcine transgenic heart), daily TPC.
The mark [3] stands for this setting: seven days after termination of TPC treatment, 14 days post transplantation.

As for “(αGal(1,3)Gal β 1-4 GlcNAc)4-PEG [Example 410S]”, in the assay with xenoreactive antibodies (250 mg TPC, during the 9 days of TPC administration following explant of the pig heart), the xenoreactive antibody levels entry was “maintained low levels”. Also, the XNA levels result in the assay on xenoreactive antibodies (following cessation of TPC) is “rose, but not as dramatically as in the non-TPC-treated control”. In assay [1] (18 days post TPC termination), the “IgG ASC values” is “returned to near normal baseline values”. Also, in assay [1] (setting [2]), the “circulating IgG ASC levels decreased” value was 70-99.7% and the “circulating IgM ASC levels decreased” value is listed as 98.5-100%. For the same substance, the “circulating anti-Gal ASC (IgM and IgG) numbers inhibited” value in assay [1] (following 6 dosages of TPC over 18 days) is on record as 70-99%. In assay [1] (setting [3]), the “circulating IgG ASC, % of baseline values” is on record as 27-84% and the “circulating IgM ASC, % of baseline values” is recorded as 1.3-9.8%.
